Source: patent US20080200404A1, “Novel Antimalarial 9A-Carbamoyl-Aminoalkyl and 9A-Thiocarbamoyl-Aminoalkyl Azalides” (priority 2005, published 2008)
Converted amounts (≈) assume the structure as drawn. Where two headings read alike, the source gives them in different places.

How the values were obtained:
Assay type in all cases: cell-based
[1] = tested on: Plasmodium falciparum TM91C235; experiment: In vitro antimalarial [3H]-hypoxanthine incorporation assay, TM91C235; conditions: Plasmodium falciparum; P. falciparum TM91C235 (multiple drug resistant isolate), 72 hours exposure
Text: (§1) The in vitro screens for intrinsic antimalarial activity were based on modifications of the procedures described by Desjardins R E, Canfield C J, Haynes J D, Chulay J D. (Quantitative assessment of antimalarial activity in vitro by a semiautomated microdilution technique. Antimicrob Agents Chemother. 1979 December; 16(6):710-8.), Chulay J D, Haynes J D, Diggs C L. (Plasmodium falciparum: Assessment of in vitro growth by [3H]hypoxanthine incorporation. Exp. Parasitol. 1983 55:138-146.), and Milhous W K, Weatherly N F, Bowdre J H, Desjardins R E. (In vitro activities of and mechanisms of resistance to antifol antimalarial drugs. Antimicrob Agents Chemother. 1985 April; 27(4):525-30.). The system was limited to the assessment of the intrinsic activity against the erythrocytic asexual life cycle (blood schizontocides). Two Plasmodium falciparum clones from CDC/Indochina III (W-2) and CDC/Sierra Leone I (D-6) (Oduola A M, Weatherly N F, Bowdre J H, Desjardins R E. Plasmodium falciparum: cloning by single-erythrocyte micromanipulation and heterogeneity in vitro. Exp Parasitol. 1988 66(1):86-95.) were used for all assays. TM91C235, a multiple drug resistant isolate from Thailand, was used for the prescreening assay. W-2 is resistant to chloroquine, quinine, and pyrimethamine and susceptible to mefloquine. D-6 tends to be more resistant to mefloquine and susceptible to chloroquine, quinine, and pyrimethamine. All documents cited in this paragraph are incorporated by reference in their entirety.
(§2) All parasites were maintained in continuous long term cultures in RPMI-1640 medium supplemented with 6% washed human A positive (A+)(erythrocytes, 25 mM Hepes, […], and 10% heat inactivated A+human plasma or ALBUMAX® (lipid-rich bovine serum albumin; Invitrogen, Carlsbad, Calif.). All cultures and assays were conducted at 37° C. under an atmosphere of 5% CO2 and 5% O2, with a balance of N2.
The prescreening assay uses TM91C235 diluted at a 0.4% parasitemia in a 1% hematocrit in folic acid free and p-aminobenzoic acid free media RPMI-1640 and ALBUMAX®. One mg of the compound is typically dissolved in 100 μl of dimethyl sulfoxide (DMSO). The compound is further diluted in culture medium (FF) with ALBUMAX® for the first initial starting concentration. The rest of the stock drug solution was kept at −70° C. The isolate was preexposed, in duplicate, at three concentrations (25,000 ng/ml, 2,500 ng/ml, and 25 ng/ml) of the test compound for 48 hr in a 96-well microtiter plate (MTP) using the BIOMEK® 2000 automated laboratory workstation. Each MTP contains chloroquine as control to assess the relative activity of the compound and to monitor the response of TM91C235.
(§3) After the preincubation, [^3H]-hypoxanthine was added to each well of the MTP. (The assay relies on the incorporation of radiolabeled hypoxanthine by the parasites, which indicates reproduction, and inhibition of isotope incorporation was attributed to activity of known or candidate antimalarial drugs). After 72 hr of total incubation time, the MTP were frozen to lyse the erythrocytes and parasites. The parasite DNA was recovered by harvesting the lysate onto glass-fiber filter plates using a Packard FilterMate™ Cell Harvester. The radioactivity was counted on a Packard TopCount™ microplate scintillation counter. The results were recorded as counts per minutes (CPM) per well at each drug concentration divided by the arithmetic mean of the CPM from the three untreated infection parasite control wells.
The serial dilution assay was conducted using the same assay conditions and stock solution of the compound used for the preliminary screen, described above. Both the D-6 and the W-2 clones were used. The compounds were diluted two-fold over 11 different concentration ranges with a starting concentration that was based on the preliminary screen. […]

[2] = tested on: Plasmodium falciparum clone CDC/Indochina III (W-2); experiment: In vitro antimalarial [3H]-hypoxanthine incorporation serial dilution assay, W2; conditions: Plasmodium falciparum; P. falciparum W2, 72 hours exposure
Text: as §1, §2, §3
(§4) The serial dilution assay was conducted using the same assay conditions and stock solution of the compound used for the preliminary screen, described above. Both the D-6 and the W-2 clones were used. The compounds were diluted two-fold over 11 different concentration ranges with a starting concentration that was based on the preliminary screen. For each drug, the concentration response profile was determined and 50% inhibitory concentrations (IC50) were determined by using a non-linear, logistic dose response analysis program. […] For each assay, the IC50 for each clone was determined against the known antimalarials chloroquine and mefloquine. These control values established the compound's relative parasite susceptibility profile compared to known antimalarials. […]
(§5) The in vitro potency of the compounds has been compared with that of azithromycin to better gauge compounds suitable for further testing. As described above, parasites were exposed for 72 hours. Data from the in vitro potency tests of azithromycin against the three parasite strains have been averaged, and these numbers have been used for identification of “active” macrolide compounds.

[3] = tested on: Plasmodium falciparum clone CDC/Sierra Leone I (D-6); experiment: In vitro antimalarial [3H]-hypoxanthine incorporation serial dilution assay, D6; conditions: Plasmodium falciparum, D6, 72 h, P. falciparum D6, 72 hours exposure
Text: as §1, §2, §3, §4, §5

[4] = compared with azithromycin, read-out: IC50 D6 (class symbol)

Row | SMILES | IC50 [1] | IC50 [2] | IC50 ([3]; read-out: IC50 D6) | IC50 [3, 4]
1 | CC[C@H]1OC(=O)[C@H](C)[C@@H](O[C@H]2C[C@@](C)(OC)[C@@H](O)[C@H](C)O2)[C@H](C)[C@@H](O[C@@H]2O[C@H](C)C[C@H](N(C)C)[C@H]2O)[C@](C)(O)C[C@@H](C)CN(CCCNC(=O)Nc2ccc3c(c2)CCC3)[C@H](C)[C@@H](O)[C@]1(C)O [Example 64] | 0.0915 µg/mL (≈ 0.0962 µM) | 0.07 µg/mL (≈ 0.0736 µM) | 0.253 µg/mL (≈ 0.266 µM) | 
2 | CC[C@H]1OC(=O)[C@H](C)[C@@H](O[C@H]2C[C@@](C)(OC)[C@@H](O)[C@H](C)O2)[C@H](C)[C@@H](O[C@@H]2O[C@H](C)C[C@H](N(C)C)[C@H]2O)[C@](C)(O)C[C@@H](C)CN(CCCNC(=O)Nc2ccc(C(C)=O)cc2)[C@H](C)[C@@H](O)[C@]1(C)O.O=CO [Example 65] | 0.398 µg/mL | 0.708 µg/mL |  | > 0.797 µg/mL
3 | CC[C@H]1OC(=O)[C@H](C)[C@@H](O[C@H]2C[C@@](C)(OC)[C@@H](O)[C@H](C)O2)[C@H](C)[C@@H](O[C@@H]2O[C@H](C)C[C@H](N(C)C)[C@H]2O)[C@](C)(O)C[C@@H](C)CN(CCCNC(=O)Nc2ccc(C(C)C)cc2)[C@H](C)[C@@H](O)[C@]1(C)O [Example 66] | 0.0746 µg/mL (≈ 0.0783 µM) | 0.0676 µg/mL (≈ 0.0709 µM) | 0.214 µg/mL (≈ 0.225 µM) | 
4 | CC[C@H]1OC(=O)[C@H](C)[C@@H](O[C@H]2C[C@@](C)(OC)[C@@H](O)[C@H](C)O2)[C@H](C)[C@@H](O[C@@H]2O[C@H](C)C[C@H](N(C)C)[C@H]2O)[C@](C)(O)C[C@@H](C)CN(CCCNC(=O)NCc2ccc(OC)cc2)[C@H](C)[C@@H](O)[C@]1(C)O [Example 67] | 0.462 µg/mL (≈ 0.484 µM) | 0.195 µg/mL (≈ 0.204 µM) |  | > 0.797 µg/mL
5 | CC[C@H]1OC(=O)[C@H](C)[C@@H](O[C@H]2C[C@@](C)(OC)[C@@H](O)[C@H](C)O2)[C@H](C)[C@@H](O[C@@H]2O[C@H](C)C[C@H](N(C)C)[C@H]2O)[C@](C)(O)C[C@@H](C)CN(CCCNC(=O)Nc2ccc3c(c2)OCO3)[C@H](C)[C@@H](O)[C@]1(C)O [Example 68] | 0.254 µg/mL (≈ 0.265 µM) | 0.106 µg/mL (≈ 0.111 µM) | 0.798 µg/mL (≈ 0.835 µM) | 
6 | CC[C@H]1OC(=O)[C@H](C)[C@@H](O[C@H]2C[C@@](C)(OC)[C@@H](O)[C@H](C)O2)[C@H](C)[C@@H](O[C@@H]2O[C@H](C)C[C@H](N(C)C)[C@H]2O)[C@](C)(O)C[C@@H](C)CN(CCCNC(=O)Nc2ccc(C(F)(F)F)cc2)[C@H](C)[C@@H](O)[C@]1(C)O.O=CO [Example 70] | 0.0863 µg/mL | 0.0765 µg/mL | 0.164 µg/mL | 
7 | CC[C@H]1OC(=O)[C@H](C)[C@@H](O[C@H]2C[C@@](C)(OC)[C@@H](O)[C@H](C)O2)[C@H](C)[C@@H](O[C@@H]2O[C@H](C)C[C@H](N(C)C)[C@H]2O)[C@](C)(O)C[C@@H](C)CN(CCCNC(=O)Nc2cccc(Cl)c2)[C@H](C)[C@@H](O)[C@]1(C)O.O=CO [Example 80] | 0.117 µg/mL | 0.186 µg/mL | 0.451 µg/mL | 
8 | CC[C@H]1OC(=O)[C@H](C)[C@@H](O[C@H]2C[C@@](C)(OC)[C@@H](O)[C@H](C)O2)[C@H](C)[C@@H](O[C@@H]2O[C@H](C)C[C@H](N(C)C)[C@H]2O)[C@](C)(O)C[C@@H](C)CN(CCCNC(=O)Nc2cccc(F)c2)[C@H](C)[C@@H](O)[C@]1(C)O.O=CO [Example 81] | 0.16 µg/mL | 0.278 µg/mL | 0.565 µg/mL | 
